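Test compounds were applied to cells in 96-well plates for 48 hours at 5 doses. GI50 = concentration required for 50% inhibition of growth. TGI denotes the concentration required for complete inhibition of growth.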
Key:
Test in all cases: NCI-60 cell line screen, 48 h
NCI-H23 lung = test system: NCI-H23 lung
NCI-H460 lung = test system: NCI-H460 lung
NCI-H522 lung = test system: NCI-H522 lung
NCI/ADR-RES ovarian = test system: NCI/ADR-RES ovarian
OVCAR-3 ovarian = test system: OVCAR-3 ovarian
OVCAR-4 ovarian = test system: OVCAR-4 ovarian
OVCAR-5 ovarian = test system: OVCAR-5 ovarian
OVCAR-8 ovarian = test system: OVCAR-8 ovarian
PC-3 prostate = test system: PC-3 prostate
RPMI-8226 leukemia = test system: RPMI-8226 leukemia
RXF 393 renal = test system: RXF 393 renal
SF-268 CNS = test system: SF-268 CNS
SF-295 CNS = test system: SF-295 CNS
SF-539 CNS = test system: SF-539 CNS
SK-MEL-2 melanoma = test system: SK-MEL-2 melanoma
SK-MEL-28 melanoma = test system: SK-MEL-28 melanoma
SK-MEL-5 melanoma = test system: SK-MEL-5 melanoma
SK-OV-3 ovarian = test system: SK-OV-3 ovarian
SN12C renal = test system: SN12C renal
SNB-19 CNS = test system: SNB-19 CNS
SNB-75 CNS = test system: SNB-75 CNS
SR leukemia = test system: SR leukemia
SW-620 colon = test system: SW-620 colon
T-47D breast = test system: T-47D breast
TK-10 renal = test system: TK-10 renal
U251 CNS = test system: U251 CNS
UACC-257 melanoma = test system: UACC-257 melanoma
UACC-62 melanoma = test system: UACC-62 melanoma
UO-31 renal = test system: UO-31 renal

`C/C(=N/N=C(N)N)c1ccc(NC(=O)Nc2ccc(/C(C)=N/N=C(N)N)cc2)cc1` showed a GI50 (NCI-H23 lung) of 13.9 µM, a TGI (NCI-H23 lung) of 48 µM and a GI50 (NCI-H460 lung) of 13.5 µM. For the same compound, the TGI (NCI-H460 lung) was 48.8 µM, the GI50 (NCI-H522 lung) was 7.14 µM and the TGI (NCI-H522 lung) was 28.8 µM. The GI50 (NCI/ADR-RES ovarian) was 18 µM, the TGI (NCI/ADR-RES ovarian) was greater than 100 µM and the GI50 (OVCAR-3 ovarian) was 18.6 µM. For the same compound, the TGI (OVCAR-3 ovarian) was greater than 61.6 µM, the GI50 (OVCAR-4 ovarian) was 17.1 µM and the TGI (OVCAR-4 ovarian) was 61.1 µM. For the same compound, the GI50 (OVCAR-5 ovarian) was 17.9 µM, the TGI (OVCAR-5 ovarian) was 56.6 µM and the GI50 (OVCAR-8 ovarian) was 21.8 µM. The TGI (OVCAR-8 ovarian) was greater than 78.8 µM, the GI50 (PC-3 prostate) was 14.4 µM and the TGI (PC-3 prostate) was 46.9 µM. For the same compound, the GI50 (RPMI-8226 leukemia) was 3.77 µM, the TGI (RPMI-8226 leukemia) was 34.2 µM and the GI50 (RXF 393 renal) was 20.3 µM. The TGI (RXF 393 renal) was 42.4 µM, the GI50 (SF-268 CNS) was 17.2 µM and the TGI (SF-268 CNS) was greater than 71.2 µM. It also gave a GI50 (SF-295 CNS) of 12.4 µM, a TGI (SF-295 CNS) of 28.4 µM and a GI50 (SF-539 CNS) of 17.9 µM. For the same compound, the TGI (SF-539 CNS) was 36.1 µM, the GI50 (SK-MEL-2 melanoma) was 18.4 µM and the TGI (SK-MEL-2 melanoma) was 60.6 µM. For the same compound, the GI50 (SK-MEL-28 melanoma) was 15 µM, the TGI (SK-MEL-28 melanoma) was 39.9 µM and the GI50 (SK-MEL-5 melanoma) was 10.6 µM. For the same compound, the TGI (SK-MEL-5 melanoma) was 37.9 µM, the GI50 (SK-OV-3 ovarian) was 36.3 µM and the TGI (SK-OV-3 ovarian) was greater than 82.3 µM. It also gave a GI50 (SN12C renal) of 14.2 µM, a TGI (SN12C renal) of 45.7 µM and a GI50 (SNB-19 CNS) of 19.6 µM. The TGI (SNB-19 CNS) was 45 µM, the GI50 (SNB-75 CNS) was 17.6 µM and the TGI (SNB-75 CNS) was 38.1 µM. The GI50 (SR leukemia) was 15.2 µM, the TGI (SR leukemia) was 30.1 µM and the GI50 (SW-620 colon) was 48.8 µM. For the same compound, the TGI (SW-620 colon) was greater than 100 µM, the GI50 (T-47D breast) was 8.29 µM and the TGI (T-47D breast) was 34.6 µM. For the same compound, the GI50 (TK-10 renal) was 6.2 µM, the TGI (TK-10 renal) was 33.8 µM and the GI50 (U251 CNS) was 7.94 µM. The TGI (U251 CNS) was 24.3 µM, the GI50 (UACC-257 melanoma) was 31.1 µM and the TGI (UACC-257 melanoma) was greater than 89.6 µM. For the same compound, the GI50 (UACC-62 melanoma) was 17.4 µM, the TGI (UACC-62 melanoma) was 45.3 µM and the GI50 (UO-31 renal) was 40.8 µM. It also gave a TGI (UO-31 renal) greater than 100 µM.
